Assay results reported in patent publication US11485742B2, “2-azaspiro[3.4]octane derivatives as M4 agonists” (NOVARTIS AG, priority 2019, dated 2022).

Experiments:
Type in all cases: cell-based
[1] = biological target: T1, human cloned CHRM3 receptor (Homo sapiens, UniProt P20309); experiment: CHRM3 Ca++ Flux Assay (M3_CHO cells, agonist mode); settings: for EC50: agonist mode, geometric mean if tested more than once, read-out: M3 FDSS EC50; for Emax: read-out: M3 FDSS PA %
T1 construct: expressed in transfected cells; host or cells: CHO-K1 (M3_CHO)
Procedure, shortened: (§1)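 CHO-K1 cells stably expressing human M3 or M5 receptor, dye-loaded ≥1 h, treated with 11-point compound doses in triplicate; Ca++ flux read over 3 min (FDSS). Agonist-mode four-parameter fit; percent activity relative to carbachol EC100; repeat tests reported as geometric mean.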

[2] = biological target: T2, human cloned CHRM5 receptor (Homo sapiens, UniProt P08912); experiment: CHRM5 Ca++ Flux Assay (M5_CHO cells, agonist mode); settings: for EC50: agonist mode, geometric mean if tested more than once, read-out: M5 FDSS EC50; for Emax: read-out: M5 FDSS PA %
T2 construct: expressed in transfected cells; host or cells: CHO (M5_CHO)
T2 sequence (P08912 1-532): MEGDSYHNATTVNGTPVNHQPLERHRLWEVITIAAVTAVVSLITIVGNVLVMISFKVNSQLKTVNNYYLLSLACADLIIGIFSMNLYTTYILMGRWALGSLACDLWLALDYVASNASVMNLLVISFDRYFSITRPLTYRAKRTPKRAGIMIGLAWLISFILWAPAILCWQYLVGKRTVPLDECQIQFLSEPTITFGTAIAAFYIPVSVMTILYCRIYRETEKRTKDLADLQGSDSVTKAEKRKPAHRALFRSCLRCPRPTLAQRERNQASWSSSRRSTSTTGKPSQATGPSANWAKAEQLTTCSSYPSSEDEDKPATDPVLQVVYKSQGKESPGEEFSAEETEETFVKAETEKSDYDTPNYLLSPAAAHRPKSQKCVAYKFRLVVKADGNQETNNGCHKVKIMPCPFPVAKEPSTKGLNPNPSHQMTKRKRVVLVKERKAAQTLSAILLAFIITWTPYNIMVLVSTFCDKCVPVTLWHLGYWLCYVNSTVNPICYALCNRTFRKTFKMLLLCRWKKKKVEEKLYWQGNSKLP
Procedure, shortened: as §1

[3] = biological target: T3, Cloned human M1 receptor (CHRM1) (Homo sapiens, UniProt P11229); experiment: CHRM1 Ca++ Flux Assay (HEK293 M1 cells, agonist mode); settings: for EC50: geometric mean if tested more than once, read-out: M1 FDSS EC50; for Emax: read-out: M1 FDSS PA %
T3 construct: expressed in transfected cells; host or cells: HEK293
T3 sequence (P11229 1-460): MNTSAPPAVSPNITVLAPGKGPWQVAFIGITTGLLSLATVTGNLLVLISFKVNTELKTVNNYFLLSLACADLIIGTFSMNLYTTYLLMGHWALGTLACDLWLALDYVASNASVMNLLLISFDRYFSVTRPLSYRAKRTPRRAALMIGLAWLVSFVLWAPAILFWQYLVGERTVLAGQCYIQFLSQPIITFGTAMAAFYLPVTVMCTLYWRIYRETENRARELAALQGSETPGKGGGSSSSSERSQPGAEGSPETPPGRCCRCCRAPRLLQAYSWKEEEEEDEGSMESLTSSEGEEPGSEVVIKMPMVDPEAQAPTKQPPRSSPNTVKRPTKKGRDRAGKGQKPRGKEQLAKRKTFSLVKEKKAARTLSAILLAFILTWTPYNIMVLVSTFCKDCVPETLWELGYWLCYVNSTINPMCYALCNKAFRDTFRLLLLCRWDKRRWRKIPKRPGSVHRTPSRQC
Procedure, shortened: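 HEK293 cells stably expressing human M1 were loaded with Ca++ dye, then given compounds (11-point dose, triplicate) in HBSS −Ca/−Mg, 20 mM HEPES. Ca++ flux was read over 3 min (agonist mode). Four-parameter curves were fitted, with activity as percent of carbachol EC100.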

[4] = Percent Activity (PA) measured to EC100 of Carbachol

T1 sequence (P20309 whole entry): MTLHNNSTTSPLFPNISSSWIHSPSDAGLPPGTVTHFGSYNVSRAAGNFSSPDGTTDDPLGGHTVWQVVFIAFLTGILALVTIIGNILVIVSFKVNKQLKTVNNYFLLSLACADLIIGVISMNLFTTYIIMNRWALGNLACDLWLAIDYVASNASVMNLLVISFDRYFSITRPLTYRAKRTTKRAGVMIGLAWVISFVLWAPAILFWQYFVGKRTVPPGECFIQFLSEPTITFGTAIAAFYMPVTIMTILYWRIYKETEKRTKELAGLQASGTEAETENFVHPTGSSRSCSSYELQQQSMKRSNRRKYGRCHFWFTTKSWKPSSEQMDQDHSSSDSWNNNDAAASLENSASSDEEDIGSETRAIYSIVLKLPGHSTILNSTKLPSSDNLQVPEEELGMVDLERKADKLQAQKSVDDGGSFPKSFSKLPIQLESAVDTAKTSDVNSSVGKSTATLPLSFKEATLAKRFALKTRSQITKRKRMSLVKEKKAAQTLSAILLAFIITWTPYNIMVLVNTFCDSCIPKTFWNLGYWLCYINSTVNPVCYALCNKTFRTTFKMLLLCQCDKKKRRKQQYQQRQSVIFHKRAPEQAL

| Structure (SMILES) | M3 FDSS PA % [1, 4] [%] | EC50 [1] [µM] | M5 FDSS PA % [2, 4] [%] | EC50 [2] [µM] | M1 FDSS PA % ([3]; Percent Activity (PA)) [%] | EC50 [3] [µM] | Emax [1, 4] [%] | Emax [2, 4] [%] | Emax ([3]; Percent Activity (PA)) [%] |
| --- | --- | --- | --- | --- | --- | --- | --- | --- | --- |
| C[C@H](Oc1ccc(F)cc1C1CCN([C@@H]2COC3(C2)CN(c2nnco2)C3)CC1)C1CCOCC1 [Example 2X, (S)-7-(4-(5-fluoro-2-((S)-1-(tetrahydro-2H-pyran-4-yl)ethoxy)phenyl)piperidin-1-yl)-2-(1,3,4-oxadiazol-2-yl)-5-oxa-2-azaspiro[3.4]octane or(S)-7-(4-(5-fluoro-2-((R)-1-(tetrahydro-2H-pyran-4-yl)ethoxy)phenyl)piperidin-1-yl)-2-(1,3,4-oxadiazol-2-yl)-5-oxa-2-azaspiro[3.4]octane] | 0 | > 25 | 0 | > 25 | 42 | 11.3 | – | – | – |
| Fc1ccc(OCC2C3COCC32)c(C2CCN([C@@H]3COC4(C3)CN(c3nnco3)C4)CC2)c1 (stereo partly drawn) [Example 2Z, (7S)-7-(4-(2-((3-oxabicyclo[3.1.0]hexan-6-yl)methoxy)-5-fluorophenyl)piperidin-1-yl)-2-(1,3,4-oxadiazol-2-yl)-5-oxa-2-azaspiro[3.4]octane] | – | > 25 | – | > 25 | – | 5.06 | 0 | 0 | 11 |
| c1ccc(C2CCN([C@@H]3COC4(C3)CN(c3nnco3)C4)CC2)c(C2CCOCC2)c1 [Example 3C, (S)-2-(1,3,4-oxadiazol-2-yl)-7-(4-(2-(tetrahydro-2H-pyran-4-yl)phenyl)piperidin-1-yl)-5-oxa-2-azaspiro[3.4]octane] | – | > 25 | – | > 25 | – | 3.89 | 0 | 0 | 78 |
| Fc1ccc(C2CCOCC2)c(C2CCN([C@@H]3COC4(C3)CN(c3nnco3)C4)CC2)c1 [Example 3D, (S)-7-(4-(5-fluoro-2-(tetrahydro-2H-pyran-4-yl)phenyl)piperidin-1-yl)-2-(1,3,4-oxadiazol-2-yl)-5-oxa-2-azaspiro[3.4]octane] | – | > 25 | – | > 25 | – | 1.41 | 0 | 0 | 75 |
| c1ccc(C2CCN([C@@H]3COC4(C3)CN(c3nnco3)C4)CC2)c(CC2CCOCC2)c1 [Example 3G, (S)-2-(1,3,4-oxadiazol-2-yl)-7-(4-(2-((tetrahydro-2H-pyran-4-yl)methyl)phenyl)piperidin-1-yl)-5-oxa-2-azaspiro[3.4]octane] | – | > 25 | – | > 25 | – | 7.24 | 0 | 0 | 44 |
| Fc1ccc(OC2COC2)c(C2CCN([C@@H]3COC4(C3)CN(c3ncco3)C4)CC2)c1 [Example 4A, (S)-7-(4-(5-fluoro-2-(oxetan-3-yloxy)phenyl)piperidin-1-yl)-2-(oxazol-2-yl)-5-oxa-2-azaspiro[3.4]octane] | – | > 25 | – | > 25 | – | 0.234 | 0 | 0 | 84 |
| Fc1ccc(OC[C@H]2COCCO2)c(C2CCN([C@@H]3COC4(C3)CN(c3ncco3)C4)CC2)c1 [Example 4B, (S)-7-(4-(2-(((R)-1,4-dioxan-2-yl)methoxy)-5-fluorophenyl)piperidin-1-yl)-2-(oxazol-2-yl)-5-oxa-2-azaspiro[3.4]octane] | – | > 25 | – | > 25 | – | 0.424 | 0 | 0 | 117 |
| c1ccc(C2CCN([C@@H]3COC4(C3)CN(c3ncco3)C4)CC2)c(OC2COC2)c1 [Example 4C, (S)-2-(oxazol-2-yl)-7-(4-(2-(oxetan-3-yloxy)phenyl)piperidin-1-yl)-5-oxa-2-azaspiro[3.4]octane] | – | > 25 | – | > 25 | – | 0.382 | 0 | 0 | 79 |
| Fc1ccc(O[C@@H]2CCOC2)c(C2CCN([C@@H]3COC4(C3)CN(c3ncco3)C4)CC2)c1 [Example 4D, (S)-7-(4-(5-fluoro-2-(((R)-tetrahydrofuran-3-yl)oxy)phenyl)piperidin-1-yl)-2-(oxazol-2-yl)-5-oxa-2-azaspiro[3.4]octane] | – | > 25 | – | > 25 | – | 0.741 | 0 | 0 | 95 |
| Fc1ccc(OC2CCOCC2)c(C2CCN([C@@H]3COC4(C3)CN(c3ncco3)C4)CC2)c1 [Example 4E, (S)-7-(4-(5-fluoro-2-((tetrahydro-2H-pyran-4-yl)oxy)phenyl)piperidin-1-yl)-2-(oxazol-2-yl)-5-oxa-2-azaspiro[3.4]octane] | – | > 25 | – | > 25 | – | 0.979 | 0 | 0 | 75 |
| c1ccc(C2CCN([C@@H]3COC4(C3)CN(c3ncco3)C4)CC2)c(O[C@@H]2CCOC2)c1 [Example 4F, (S)-2-(oxazol-2-yl)-7-(4-(2-(((R)-tetrahydrofuran-3-yl)oxy)phenyl)piperidin-1-yl)-5-oxa-2-azaspiro[3.4]octane] | – | > 25 | – | > 25 | – | 0.54 | 0 | 0 | 90 |
| Fc1ccc(OC2CC3(COC3)C2)c(C2CCN([C@@H]3COC4(C3)CN(c3ncco3)C4)CC2)c1 [Example 4G, (S)-7-(4-(2-((2-oxaspiro[3.3]heptan-6-yl)oxy)-5-fluorophenyl)piperidin-1-yl)-2-(oxazol-2-yl)-5-oxa-2-azaspiro[3.4]octane] | – | > 25 | – | > 25 | – | 1.76 | 0 | 0 | 62 |
| c1ccc(C2CCN([C@@H]3COC4(C3)CN(c3ncco3)C4)CC2)c(O[C@H]2CCOC2)c1 [Example 4H, (S)-2-(oxazol-2-yl)-7-(4-(2-(((S)-tetrahydrofuran-3-yl)oxy)phenyl)piperidin-1-yl)-5-oxa-2-azaspiro[3.4]octane] | – | > 25 | – | > 25 | – | 0.745 | 0 | 0 | 63 |
| COc1ccc(F)cc1C1CCN([C@@H]2COC3(C2)CN(c2ncco2)C3)CC1 [Example 4I, (S)-7-(4-(5-fluoro-2-methoxyphenyl)piperidin-1-yl)-2-(oxazol-2-yl)-5-oxa-2-azaspiro[3.4]octane] | – | > 25 | – | > 25 | – | 0.227 | 0 | 0 | 82 |
| c1ccc(C2CCN([C@@H]3COC4(C3)CN(c3ncco3)C4)CC2)c(OC2CCOCC2)c1 [Example 4J, (S)-2-(oxazol-2-yl)-7-(4-(2-((tetrahydro-2H-pyran-4-yl)oxy)phenyl)piperidin-1-yl)-5-oxa-2-azaspiro[3.4]octane] | – | > 25 | – | > 25 | – | 1.67 | 0 | 0 | 72 |
| CC(C)(O)COc1ccc(F)cc1C1CCN([C@@H]2COC3(C2)CN(c2ncco2)C3)CC1 [Example 4K, (S)-1-(4-fluoro-2-(1-(2-(oxazol-2-yl)-5-oxa-2-azaspiro[3.4]octan-7-yl)piperidin-4-yl)phenoxy)-2-methylpropan-2-ol] | – | > 25 | – | > 25 | – | 0.444 | 0 | 0 | 60 |
| COCCOc1ccc(F)cc1C1CCN([C@@H]2COC3(C2)CN(c2ncco2)C3)CC1 [Example 4L, (S)-7-(4-(5-fluoro-2-(2-methoxyethoxy)phenyl)piperidin-1-yl)-2-(oxazol-2-yl)-5-oxa-2-azaspiro[3.4]octane] | – | > 25 | – | > 25 | – | 0.336 | 0 | 0 | 66 |
